# Data as given in paper PMC9127750, “Structure-based design of CDC42 effector interaction inhibitors for the treatment of cancer” (Cell reports, 2022).
# “And” between values parts separate entries of the source, which are not always exact repeats. Identical values can stand only once.
# Tested on: WM3248 melanoma cells, 486 antibodies
# Test: Reverse phase protein arrays (RPPA)
# Format: cell-based, Human
# Excerpt: Pellets were snap frozen in liquid nitrogen and shipped to MD Anderson Cancer Center core RPPA facility for RPPA analysis (Table S5). Three biological replicates for each sample were generated.
# Nomenclatures on the RPPA heatmaps: name_of_antibody.species_of_antibody.status_of_antibody. V - antibody validated; C - validation of antibody in progress; Q - antibody nonspecific; E – under evaluation; antibodies raised in M - mouse, G - goat, R - rabbit, or T - rat.
# [1] = level 10 normalized to 0, mean of 3
# [2] = level 10 normalized to 0, single replicates
smiles,measurement,setting,value
"CN(C)c1cccc(Nc2cc(-c3ccccc3)nc(C3CCNCC3)n2)c1 [ARN22089, N1,N1-dimethyl-N3-(6-phenyl-2-(piperidin-4-yl)pyrimidin-4-yl)benzene-1,3-diamine]",XIAP.R.C Norm_10 Average,[1],0.978
same,XPA.M.V Norm_10 Average,[1],0.978
same,XPF.R.C Norm_10 Average,[1],0.977
same,YAP.R.C Norm_10 Average,[1],1.029
same,YB1_pS102.R.V Norm_10 Average,[1],0.937
same,YES1.R.V Norm_10 Average,[1],1.017
same,YTHDF3.R.C Norm_10 Average,[1],1.101
same,ZAP.70.R.V Norm_10 Average,[1],0.957
same,ZEB1.R.V Norm_10 Average,[1],0.964
same,TSC1.R.C Norm_10_1 to Norm_10_3,[2],0.905 and 0.842
same,TTF1.R.V Norm_10_1 to Norm_10_3,[2],1.022 and 0.970 and 1.241
same,TUFM.R.V Norm_10_1 to Norm_10_3,[2],0.423 and 1.882 and 1.360
same,Tuberin.R.V Norm_10_1 to Norm_10_3,[2],1.169 and 0.526 and 0.811
same,Tuberin_pT1462.R.V Norm_10_1 to Norm_10_3,[2],1.492 and 0.717 and 0.984
same,Twist.M.C Norm_10_1 to Norm_10_3,[2],1.114 and 1.030
same,Tyro3.R.V Norm_10_1 to Norm_10_3,[2],1.080 and 1.777 and 1.302
same,U.Histone.H2B.R.C Norm_10_1 to Norm_10_3,[2],0.871 and 0.726
same,UBAC1.R.V Norm_10_1 to Norm_10_3,[2],0.932 and 1.030 and 1.078
same,UBQLN4.M.C Norm_10_1 to Norm_10_3,[2],0.984 and 0.918 and 0.980
same,UGT1A.M.V Norm_10_1 to Norm_10_3,[2],1.017 and 1.128 and 1.006
same,ULK1_pS757.R.C Norm_10_1 to Norm_10_3,[2],1.125 and 0.823 and 0.899
same,UQCRC2.M.C Norm_10_1 to Norm_10_3,[2],0.945 and 1.144 and 1.246
same,UVRAG.R.C Norm_10_1 to Norm_10_3,[2],1.050 and 0.851 and 0.904
same,VASP.R.V Norm_10_1 to Norm_10_3,[2],0.815 and 0.894
same,VAV1.R.C Norm_10_1 to Norm_10_3,[2],1.035 and 0.844 and 0.890
same,VEGFR.2.R.V Norm_10_1 to Norm_10_3,[2],0.901 and 0.958 and 1.012
same,VEGFR.2_pY1175.R.C Norm_10_1 to Norm_10_3,[2],0.930 and 0.993
same,VHL.EPPK1.M.C Norm_10_1 to Norm_10_3,[2],0.587 and 1.522 and 0.982
same,VHL.R.C Norm_10_1 to Norm_10_3,[2],0.900 and 0.987
same,Vinculin.M.V Norm_10_1 to Norm_10_3,[2],0.829 and 1.085 and 1.051
same,WIPI1.R.C Norm_10_1 to Norm_10_3,[2],1.210 and 1.510 and 1.234
same,WIPI2.R.C Norm_10_1 to Norm_10_3,[2],1.209 and 0.707 and 0.915
same,WTAP.R.V Norm_10_1 to Norm_10_3,[2],0.900 and 1.764 and 1.008
same,Wee1.R.C Norm_10_1 to Norm_10_3,[2],0.851 and 0.833 and 1.061
same,Wee1_pS642.R.C Norm_10_1 to Norm_10_3,[2],0.901 and 0.776 and 1.023
same,XBP.1.G.C Norm_10_1 to Norm_10_3,[2],0.989 and 1.187 and 1.403
same,XIAP.R.C Norm_10_1 to Norm_10_3,[2],1.022 and 1.000
same,XPA.M.V Norm_10_1 to Norm_10_3,[2],1.064
same,XPF.R.C Norm_10_1 to Norm_10_3,[2],0.948 and 0.944
same,XRCC1.R.C Norm_10_1 to Norm_10_3,[2],0.931 and 1.213
same,YAP.R.C Norm_10_1 to Norm_10_3,[2],0.955 and 1.252 and 0.879
same,YAP_pS127.R.V Norm_10_1 to Norm_10_3,[2],0.913 and 1.139 and 0.796
same,YB1_pS102.R.V Norm_10_1 to Norm_10_3,[2],0.840 and 1.032
same,YES1.R.V Norm_10_1 to Norm_10_3,[2],1.000 and 0.982
same,YTHDF2.R.V Norm_10_1 to Norm_10_3,[2],1.206 and 1.258
same,YTHDF3.R.C Norm_10_1 to Norm_10_3,[2],1.009 and 1.186 and 1.108
same,ZAP.70.R.V Norm_10_1 to Norm_10_3,[2],1.012 and 0.977 and 0.883
same,ZEB1.R.V Norm_10_1 to Norm_10_3,[2],0.854 and 1.114 and 0.924
same,HLA.DQA1.R.V Norm_10 Average,level 10 vs 0,0.993
same,HLA.DR.DP.DQ.DX.R.C Norm_10 Average,level 10 vs 0,1.057
same,HMHA1.R.V Norm_10 Average,level 10 vs 0,0.922
same,HNRNPK.R.V Norm_10 Average,level 10 vs 0,1.030
same,HSP27.M.C Norm_10 Average,level 10 vs 0,0.958
same,HSP27_pS82.R.V Norm_10 Average,level 10 vs 0,0.916
same,HSP60.R.V Norm_10 Average,level 10 vs 0,0.926
same,HSP70.R.C Norm_10 Average,level 10 vs 0,0.973
same,Hexokinase.I.R.C Norm_10 Average,level 10 vs 0,1.225
same,Hexokinase.II.R.V Norm_10 Average,level 10 vs 0,1.128
same,Hif.1αR.C Norm_10 Average,level 10 vs 0,1.156
same,Histone.H3.R.V Norm_10 Average,level 10 vs 0,0.957
same,IDO.R.C Norm_10 Average,level 10 vs 0,0.957
same,IGF1R_pY1135_Y1136.R.V Norm_10 Average,level 10 vs 0,0.918
same,IGFBP2.R.V Norm_10 Average,level 10 vs 0,0.935
same,IGFBP3.M.V Norm_10 Average,level 10 vs 0,0.971
same,IGFRb.R.C Norm_10 Average,level 10 vs 0,0.953
same,IL.6.R.C Norm_10 Average,level 10 vs 0,0.924
same,IMP3.R.C Norm_10 Average,level 10 vs 0,0.953
same,INPP4b.R.C Norm_10 Average,level 10 vs 0,1.029
same,IR.b.R.C Norm_10 Average,level 10 vs 0,0.981
same,IRF.1.R.V Norm_10 Average,level 10 vs 0,0.874
same,IRF.3.R.V Norm_10 Average,level 10 vs 0,0.967
same,IRS1.R.V Norm_10 Average,level 10 vs 0,0.929
same,IRS2.R.C Norm_10 Average,level 10 vs 0,1.033
same,JAB1.M.C Norm_10 Average,level 10 vs 0,1.009
same,JNK2.R.V Norm_10 Average,level 10 vs 0,2.307
same,JNK_pT183_Y185.R.C Norm_10 Average,level 10 vs 0,0.955
same,Jagged1.R.V Norm_10 Average,level 10 vs 0,0.936
same,Jak2.R.V Norm_10 Average,level 10 vs 0,0.959
same,KAP1.R.V Norm_10 Average,level 10 vs 0,1.103
same,KEAP1.R.V Norm_10 Average,level 10 vs 0,1.017
same,LAD1.R.V Norm_10 Average,level 10 vs 0,0.908
same,LC3A.B.R.C Norm_10 Average,level 10 vs 0,1.064
